Some test systems named below: DMS 114 small cell lung; MDA-N; MDA-MB-231 breast; SNB-19 CNS; DLD-1 colon; TK-10 renal; SK-MEL-2 melanoma; EKVX NSCLC; UACC-257 melanoma; NCI-H522 lung; K-562 leukemia; HOP-18 NSCLC.
What all share (test): NCI tumour cell line growth inhibition, 48 h

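96-well plates; 48 h exposure; 5 concentrations. Endpoints by linear interpolation between flanking doses. Not reached: highest tested concentration assigned. Definition used: TGI = concentration required for complete inhibition of growth.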 Where a SMILES comes first, the peptide text is derived from it. The star is where a group is joined. Boc = CC(C)(C)OC(=O)*

22 compounds from PubChem BioAssay (NCI) can be followed below.

`O=C(CCBr)N1CCN(C(=O)CCBr)CC1`: the TGI in the assay on DMS 114 small cell lung was 140 µM; in the assay on MDA-N it was 225 µM; in the assay with MDA-MB-231 breast, 242 µM; in the assay with SNB-19 CNS, 198 µM; in the assay on DLD-1 colon, 202 µM; in the assay with TK-10 renal, 488 µM. Further, the TGI with SK-MEL-2 melanoma came to 221 µM; in the assay with EKVX NSCLC, 212 µM; with UACC-257 melanoma, 246 µM; in the assay with NCI-H522 lung, 146 µM; in the assay with K-562 leukemia, 459 µM; in the assay on HOP-18 NSCLC, 238 µM.
In the case of `COc1ccc2c(c1)Oc1cc(O)ccc1[C@H]2c1ccccc1C(=O)NC(C)c1ccccc1` (some centres undefined), the TGI in the assay on DMS 114 small cell lung was determined as 24.9 µM; with SNB-19 CNS, 33 µM; in the assay on DLD-1 colon, 43.4 µM; in the assay on TK-10 renal it was 50.4 µM; with SK-MEL-2 melanoma, 82.2 µM; in the assay on EKVX NSCLC it was 33.5 µM. Besides, the values for the TGI in the assay on UACC-257 melanoma, with NCI-H522 lung and in the assay on K-562 leukemia were 37.3 µM, 28 µM and above 100 µM, respectively.
Consider `CC(C)OP(=S)(NC(=S)c1ccccc1)OC(C)C`, for which the TGI with DMS 114 small cell lung, with SNB-19 CNS, in the assay on DLD-1 colon, with TK-10 renal, with SK-MEL-2 melanoma and with EKVX NSCLC was above 100 µM in each case. Also, the TGI in the assay on UACC-257 melanoma and with K-562 leukemia was above 100 µM each time.
`COc1cccc2c1OC1Sc3ccccc3-c3nn(-c4ccccc4)c-2c31` (centres undefined): the TGI in the assay with DMS 114 small cell lung, in the assay with DLD-1 colon, with TK-10 renal, in the assay with SK-MEL-2 melanoma, in the assay on EKVX NSCLC and in the assay on UACC-257 melanoma was above 100 µM in each case. Further, the TGI in the assay with NCI-H522 lung, with K-562 leukemia and in the assay with HOP-18 NSCLC was above 100 µM in each case.
In the case of `CCC12CCCN(Cc3ccccc3)C1c1c(n(C)c3ccccc13)C(CO)C2` (centres undefined), the TGI is 84.5 µM in the assay with DMS 114 small cell lung; 186 µM in the assay with SNB-19 CNS; above 257 µM in the assay on DLD-1 colon; 246 µM in the assay with TK-10 renal; 107 µM in the assay on SK-MEL-2 melanoma; 245 µM in the assay on EKVX NSCLC. For the same compound, the TGI was determined as 95.1 µM in the assay on UACC-257 melanoma, 66.7 µM in the assay on NCI-H522 lung and 107 µM in the assay with K-562 leukemia.
Regarding `Cc1cc(=O)oc2cc(OCCCOc3ccc4c(C)cc(=O)oc4c3)ccc12`, the TGI with DMS 114 small cell lung, in the assay on SNB-19 CNS, in the assay with DLD-1 colon, in the assay with TK-10 renal, in the assay on SK-MEL-2 melanoma and in the assay on EKVX NSCLC was above 100 µM in each case. Besides, the TGI with UACC-257 melanoma and in the assay with K-562 leukemia was above 100 µM each time.
As for `CC(C)(C)N/N=C(\C(=O)Nc1cccc(Cl)c1)C1C(=O)Nc2ccccc2S1=O` (centres undefined), the TGI in the assay on DMS 114 small cell lung, in the assay with SNB-19 CNS, with DLD-1 colon, in the assay on TK-10 renal, in the assay on SK-MEL-2 melanoma and with EKVX NSCLC was above 100 µM throughout. Besides, the TGI with UACC-257 melanoma, in the assay with NCI-H522 lung and with HOP-18 NSCLC was above 100 µM each time.
Turning to `O=c1c2c3c(sc2nc2n1N=CN(c1ccccc1)C2)CCCC3`, the TGI in the assay on MDA-N, in the assay on MDA-MB-231 breast, in the assay on SNB-19 CNS, in the assay with TK-10 renal, with SK-MEL-2 melanoma and in the assay with EKVX NSCLC was above 100 µM in each case. In addition, the TGI in the assay with UACC-257 melanoma, with NCI-H522 lung and in the assay with K-562 leukemia was above 100 µM each time.
`Cn1cnc(N2CCCC2)c(C#N)c1=S`: the TGI in the assay on MDA-N, with MDA-MB-231 breast, in the assay with SNB-19 CNS, in the assay with TK-10 renal, in the assay with SK-MEL-2 melanoma and in the assay on EKVX NSCLC was above 100 µM in each case. Also, the TGI with UACC-257 melanoma, in the assay with NCI-H522 lung and with K-562 leukemia was above 100 µM in each case.
Turning to `O=C1/C(=C/c2ccc(O)cc2)CCCC1CN1CCCCC1` (centres undefined), the TGI in the assay with MDA-N was determined as 10.8 µM; in the assay on MDA-MB-231 breast, 4.43 µM; in the assay on SNB-19 CNS, 31.8 µM; with TK-10 renal, 8.64 µM; with SK-MEL-2 melanoma it was 26.9 µM; with EKVX NSCLC, 7.8 µM. Moreover, the TGI is 6.72 µM with UACC-257 melanoma, 2.79 µM in the assay on NCI-H522 lung and above 24.4 µM in the assay with K-562 leukemia.
On to `COc1cc(C2c3cc4c(cc3OC(NNc3ccccc3)C2C)OCO4)cc(OC)c1OC` (centres undefined), for which the TGI in the assay with MDA-N is 3.43 µM; in the assay on MDA-MB-231 breast, above 63.4 µM; with SNB-19 CNS, above 31 µM; in the assay on TK-10 renal, 31.8 µM; with SK-MEL-2 melanoma, 38.6 µM; in the assay with EKVX NSCLC, 21.1 µM. The figures for the TGI with UACC-257 melanoma, in the assay with NCI-H522 lung and in the assay on K-562 leukemia were above 100 µM, 4.72 µM and above 32.1 µM, respectively.
With `COc1cccc2c1C(=O)c1c(O)c3c(c(O)c1C2=O)C[C@@](O)(C(C)=O)CC3S(=O)(=O)O` (some centres undefined), the TGI in the assay with DMS 114 small cell lung, in the assay on SNB-19 CNS, in the assay with DLD-1 colon, with TK-10 renal, in the assay with SK-MEL-2 melanoma and in the assay with EKVX NSCLC was above 100 µM each time. Further, the TGI in the assay on UACC-257 melanoma, in the assay with NCI-H522 lung, in the assay on K-562 leukemia and in the assay on HOP-18 NSCLC was above 100 µM throughout.
On to `CCc1cc(C)cc2[n+]1CC=C2`, for which the TGI with DMS 114 small cell lung is 44.3 µM; in the assay on SNB-19 CNS it was above 100 µM; with TK-10 renal, above 100 µM; with SK-MEL-2 melanoma, 40.2 µM; with EKVX NSCLC, 87.9 µM; in the assay with UACC-257 melanoma, 39.7 µM. Moreover, the TGI is 51.9 µM in the assay on NCI-H522 lung and 0.0991 µM in the assay on HOP-18 NSCLC.
Consider `COC(=O)Nc1nc2ccc(S(=O)(=O)Nc3ccccn3)cc2[nH]1`, for which the TGI in the assay with MDA-N is above 100 µM; in the assay with MDA-MB-231 breast, above 100 µM; in the assay on SNB-19 CNS it was above 100 µM; with TK-10 renal, 70.3 µM; in the assay with SK-MEL-2 melanoma it was above 100 µM; with EKVX NSCLC it was above 100 µM. For the same compound, the TGI in the assay on UACC-257 melanoma is 93.5 µM; in the assay on NCI-H522 lung, above 100 µM; in the assay with K-562 leukemia it was 75.9 µM.
Regarding `C=C(C)[C@@H](O)[C@H](O)C[C@H](C)C1CC[C@]2(C)C1=CC[C@@H]1[C@@]3(C)CC[C@@H](OC(C)=O)C(C)(C)[C@@H]3C[C@@H](OC3OC(COC(C)=O)C(O)C(O)C3O)[C@]12C` (some centres undefined), the TGI is 8.55 µM in the assay on MDA-N; 6.64 µM in the assay on MDA-MB-231 breast; 14.7 µM with SNB-19 CNS; 10.6 µM with TK-10 renal; 3.63 µM in the assay with SK-MEL-2 melanoma; 12.3 µM in the assay on EKVX NSCLC. The TGI in the assay with UACC-257 melanoma was 8.53 µM; with NCI-H522 lung, 3.55 µM; in the assay on K-562 leukemia it was 5.21 µM.
Take `Nc1nc(NCCOCP(=O)(O)O)c([N+](=O)[O-])c(=O)[nH]1`: the TGI in the assay on SNB-19 CNS, with DLD-1 colon, with TK-10 renal, in the assay with SK-MEL-2 melanoma, with EKVX NSCLC and in the assay on UACC-257 melanoma was above 100 µM throughout. For the same compound, the TGI with NCI-H522 lung, in the assay on K-562 leukemia and in the assay with HOP-18 NSCLC was above 100 µM throughout.
For the compound `Cn1c2ccc(F)cc2c2ccc3c(c21)C(=O)C=CC3=O`, the TGI in the assay with MDA-N was 27.7 µM; in the assay with MDA-MB-231 breast it was 16.5 µM; in the assay with SNB-19 CNS it was above 100 µM; in the assay with TK-10 renal, 13.7 µM; in the assay on SK-MEL-2 melanoma, above 74.2 µM; in the assay with EKVX NSCLC it was 37.9 µM. For the same compound, the TGI was 30.9 µM in the assay with UACC-257 melanoma, 4.95 µM in the assay on NCI-H522 lung and above 36.4 µM with K-562 leukemia.
As to `COc1cc(C2S/C(=C/c3ccccc3)C(=O)N2Cc2ccccc2)cc(OC)c1OC` (centres undefined), the TGI in the assay on MDA-N is 52.6 µM; in the assay with MDA-MB-231 breast it was above 100 µM; in the assay with SNB-19 CNS it was above 100 µM; with TK-10 renal, above 100 µM; in the assay with SK-MEL-2 melanoma it was above 100 µM; in the assay with EKVX NSCLC, above 100 µM. Further, the values for the TGI with UACC-257 melanoma, with NCI-H522 lung and in the assay on K-562 leukemia were above 100 µM, 62.8 µM and above 100 µM, respectively.
Regarding `COC1=C[C@]2(CCC(=O)O2)[C@@H]2Cc3ccccc3[C@H](O)[C@@H]2C1=O`, the TGI was 30.1 µM in the assay on MDA-N; above 100 µM with MDA-MB-231 breast; above 100 µM in the assay on SNB-19 CNS; above 100 µM with TK-10 renal; 96.2 µM with SK-MEL-2 melanoma; above 100 µM in the assay on EKVX NSCLC. Further, the TGI in the assay on UACC-257 melanoma was 62 µM; in the assay with NCI-H522 lung, 44.4 µM; with K-562 leukemia, above 100 µM.
Take `Cc1cc2nc3c(C#N)c4c(c(Nc5ccc(F)cc5)n3c2cc1C)CCC4`: the TGI in the assay with MDA-N, in the assay on MDA-MB-231 breast, with SNB-19 CNS, in the assay with TK-10 renal, with SK-MEL-2 melanoma and in the assay on EKVX NSCLC was above 100 µM throughout. Besides, the TGI in the assay with UACC-257 melanoma, in the assay with NCI-H522 lung and with K-562 leukemia was above 100 µM each time.
In the case of `Clc1ccc(CCNC2(c3cc4ccccc4s3)CCCCC2)cc1Cl`, the TGI in the assay on MDA-N was above 100 µM; in the assay with MDA-MB-231 breast, 43.2 µM; in the assay on SNB-19 CNS, above 100 µM; in the assay on TK-10 renal, 65.9 µM; in the assay on SK-MEL-2 melanoma it was 36.8 µM; with EKVX NSCLC it was 81.3 µM. In addition, the TGI in the assay with UACC-257 melanoma is 42.7 µM; in the assay on NCI-H522 lung, 43.9 µM; in the assay with K-562 leukemia, 36.7 µM.
Take `COC(=O)C(Cc1ccccc1)NC(=O)C(CS)NC(=O)OC(C)(C)C` (stereo not drawn) (Boc-Cys-Phe-OMe; configuration not given here): the TGI with MDA-N, in the assay with MDA-MB-231 breast, with SNB-19 CNS, in the assay on TK-10 renal, in the assay on SK-MEL-2 melanoma and with EKVX NSCLC was above 100 µM each time. For the same compound, the TGI in the assay with UACC-257 melanoma, in the assay on NCI-H522 lung and in the assay with K-562 leukemia was above 100 µM each time.
